Activity data for three compounds are collected here from ChEMBL document CHEMBL5715954, “Silencing c-Myc translation as a therapeutic strategy through targeting PI3Kδ and CK1ε in hematological malignancies” (Blood, 2017).

Set-up in all cases: scale not given: the % may be the effect or the level left
In test [1] the target is Mitogen-activated protein kinase kinase kinase kinase 1 (Homo sapiens) (UniProt Q92918). The test is described as follows: Inhibition of human HPK1 assessed as enzyme activity at 1 uM using myelin basic protein as substrate preincubated for 20 mins followed by [gamma-33P]-ATP addition and measured after 120 mins by radiometric Hot-SpotSM Kinase assay relative to control.

The target in test [2] is T1, NUAK family SNF1-like kinase 1 (Homo sapiens) (UniProt O60285).
T1 sequence (whole entry): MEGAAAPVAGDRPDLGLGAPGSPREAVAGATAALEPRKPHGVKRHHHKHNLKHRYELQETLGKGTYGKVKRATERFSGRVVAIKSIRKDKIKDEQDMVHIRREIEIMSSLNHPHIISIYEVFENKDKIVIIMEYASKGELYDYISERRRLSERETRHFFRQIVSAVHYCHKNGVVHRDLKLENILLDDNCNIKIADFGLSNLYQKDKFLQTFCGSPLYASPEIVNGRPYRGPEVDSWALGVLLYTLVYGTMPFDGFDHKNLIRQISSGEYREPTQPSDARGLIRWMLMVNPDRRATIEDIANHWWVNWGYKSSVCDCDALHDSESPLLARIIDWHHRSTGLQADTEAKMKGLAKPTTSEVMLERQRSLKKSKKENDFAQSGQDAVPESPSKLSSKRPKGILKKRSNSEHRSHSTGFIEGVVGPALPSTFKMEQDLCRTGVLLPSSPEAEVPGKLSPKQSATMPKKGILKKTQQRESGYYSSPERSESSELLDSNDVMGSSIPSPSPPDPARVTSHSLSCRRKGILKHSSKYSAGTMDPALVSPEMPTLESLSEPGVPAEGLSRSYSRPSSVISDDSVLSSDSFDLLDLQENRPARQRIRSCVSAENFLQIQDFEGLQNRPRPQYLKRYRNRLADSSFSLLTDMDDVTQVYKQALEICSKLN
As to the kind of experiment: Inhibition of human ARK5 assessed as enzyme activity at 1 uM using KKKVSRSGLYRSPSMPENLNRPR as substrate preincubated for 20 mins followed by [gamma-33P]-ATP addition and measured after 120 mins by radiometric Hot-SpotSM Kinase assay relative to control.

Test [3] deals with MAP kinase-interacting serine/threonine-protein kinase 2 (Homo sapiens) (UniProt Q9HBH9). The test is described as follows: Inhibition of human MNK2 assessed as enzyme activity at 1 uM using myelin basic protein as substrate preincubated for 20 mins followed by [gamma-33P]-ATP addition and measured after 120 mins by radiometric Hot-SpotSM Kinase assay relative to control.
In test [4] the target is Serine/threonine-protein kinase pim-3 (Homo sapiens) (UniProt Q86V86). The test is described as follows: Inhibition of human PIM3 assessed as enzyme activity at 1 uM using RSRHSSYPAGT as substrate preincubated for 20 mins followed by [gamma-33P]-ATP addition and measured after 120 mins by radiometric Hot-SpotSM Kinase assay relative to control.
Test [5] concerns the target Calcium/calmodulin-dependent protein kinase type 1D (Homo sapiens) (UniProt Q8IU85). As to the kind of experiment: Inhibition of human CAMK1d assessed as enzyme activity at 1 uM using KKALRRQETVDAL as substrate preincubated for 20 mins followed by [gamma-33P]-ATP addition and measured after 120 mins by radiometric Hot-SpotSM Kinase assay relative to control.
The target in test [6] is Casein kinase I isoform epsilon (Homo sapiens, UniProt P49674). The test is described as follows: Inhibition of human CK1epsilon assessed as enzyme activity at 1 uM using KRRRAL[pS]VASLPGL as substrate preincubated for 20 mins followed by [gamma-33P]-ATP addition and measured after 120 mins by radiometric Hot-SpotSM Kinase assay relative to control.
For test [7], the target named is Tyrosine-protein kinase Fer (Homo sapiens) (UniProt P16591). As to the kind of experiment: Inhibition of human FER assessed as enzyme activity at 1 uM using poly[Glu:Tyr] (4:1) as substrate preincubated for 20 mins followed by [gamma-33P]-ATP addition and measured after 120 mins by radiometric Hot-SpotSM Kinase assay relative to control.
Test [8] deals with T2, Mitogen-activated protein kinase 12 (Homo sapiens) (UniProt P53778).
T2 sequence (whole entry): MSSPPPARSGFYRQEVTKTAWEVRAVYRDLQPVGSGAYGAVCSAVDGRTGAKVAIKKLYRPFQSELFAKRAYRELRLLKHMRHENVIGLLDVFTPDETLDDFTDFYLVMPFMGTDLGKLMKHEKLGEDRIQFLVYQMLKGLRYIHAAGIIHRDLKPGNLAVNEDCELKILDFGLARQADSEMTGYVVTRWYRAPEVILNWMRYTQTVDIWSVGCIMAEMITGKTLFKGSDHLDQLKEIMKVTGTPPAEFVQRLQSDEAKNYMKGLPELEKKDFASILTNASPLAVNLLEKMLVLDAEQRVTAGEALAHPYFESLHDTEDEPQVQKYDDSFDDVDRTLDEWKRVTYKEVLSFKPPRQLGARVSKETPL
The test is described as follows: Inhibition of human P38g assessed as enzyme activity at 1 uM using myelin basic protein as substrate preincubated for 20 mins followed by [gamma-33P]-ATP addition and measured after 120 mins by radiometric Hot-SpotSM Kinase assay relative to control.

The target of test [9] is Dual specificity protein kinase CLK3 (Homo sapiens) (UniProt P49761). The test is described as follows: Inhibition of human CLK3 assessed as enzyme activity at 1 uM using myelin basic protein as substrate preincubated for 20 mins followed by [gamma-33P]-ATP addition and measured after 120 mins by radiometric Hot-SpotSM Kinase assay relative to control.
In test [10] the target is Interleukin-1 receptor-associated kinase 1 (Homo sapiens) (UniProt P51617). The test is described as follows: Inhibition of human IRAK1 assessed as enzyme activity at 1 uM using myelin basic protein as substrate preincubated for 20 mins followed by [gamma-33P]-ATP addition and measured after 120 mins by radiometric Hot-SpotSM Kinase assay relative to control.
Test [11] concerns the target Casein kinase I isoform gamma-3 (Homo sapiens) (UniProt Q9Y6M4). As to the kind of experiment: Inhibition of human CK1g3 assessed as enzyme activity at 1 uM using KRRRAL[pS]VASLPGL as substrate preincubated for 20 mins followed by [gamma-33P]-ATP addition and measured after 120 mins by radiometric Hot-SpotSM Kinase assay relative to control.
In test [12] the target is CDK1/Cyclin A (Homo sapiens) (UniProt P06493+P20248). As to the kind of experiment: Inhibition of human CDK1/cyclin A assessed as enzyme activity at 1 uM using RB Protein as substrate preincubated for 20 mins followed by [gamma-33P]-ATP addition and measured after 120 mins by radiometric Hot-SpotSM Kinase assay relative to control. The class given is protein-complex assay.

Test [13] concerns the target Death-associated protein kinase 2 (Homo sapiens) (UniProt Q9UIK4). As to the kind of experiment: Inhibition of human DAPK2 assessed as enzyme activity at 1 uM using KKLNRTLSFAEPG as substrate preincubated for 20 mins followed by [gamma-33P]-ATP addition and measured after 120 mins by radiometric Hot-SpotSM Kinase assay relative to control.

Dual specificity protein kinase CLK3 (Homo sapiens), sequence (P49761 whole entry, looked up): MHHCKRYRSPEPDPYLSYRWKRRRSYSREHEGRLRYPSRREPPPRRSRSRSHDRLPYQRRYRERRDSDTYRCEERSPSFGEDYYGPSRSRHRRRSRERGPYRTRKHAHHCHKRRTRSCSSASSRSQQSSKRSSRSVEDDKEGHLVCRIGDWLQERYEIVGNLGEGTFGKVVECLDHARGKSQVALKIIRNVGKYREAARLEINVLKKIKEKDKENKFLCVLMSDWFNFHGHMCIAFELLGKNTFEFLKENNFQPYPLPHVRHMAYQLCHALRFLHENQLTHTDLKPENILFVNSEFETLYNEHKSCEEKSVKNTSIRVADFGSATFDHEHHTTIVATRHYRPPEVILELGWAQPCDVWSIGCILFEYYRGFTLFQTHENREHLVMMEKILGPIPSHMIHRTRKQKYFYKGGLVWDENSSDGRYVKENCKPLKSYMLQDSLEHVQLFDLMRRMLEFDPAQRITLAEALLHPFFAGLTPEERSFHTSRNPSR
Casein kinase I isoform gamma-3 (Homo sapiens), sequence (Q9Y6M4 whole entry, looked up, canonical isoform): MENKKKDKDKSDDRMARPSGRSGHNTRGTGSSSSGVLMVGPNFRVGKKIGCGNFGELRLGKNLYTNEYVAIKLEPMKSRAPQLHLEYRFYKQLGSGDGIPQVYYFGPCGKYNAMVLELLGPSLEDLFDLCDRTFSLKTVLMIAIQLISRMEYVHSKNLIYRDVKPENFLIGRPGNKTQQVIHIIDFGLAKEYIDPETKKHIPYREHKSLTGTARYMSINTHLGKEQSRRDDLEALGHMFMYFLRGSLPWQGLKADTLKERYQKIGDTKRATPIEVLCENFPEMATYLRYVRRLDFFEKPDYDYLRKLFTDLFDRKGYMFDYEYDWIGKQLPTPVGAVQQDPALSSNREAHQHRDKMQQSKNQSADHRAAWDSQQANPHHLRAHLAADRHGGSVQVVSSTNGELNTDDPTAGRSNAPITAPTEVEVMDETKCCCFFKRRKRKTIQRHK
CDK1/Cyclin A (Homo sapiens), sequence (P06493 whole entry, looked up): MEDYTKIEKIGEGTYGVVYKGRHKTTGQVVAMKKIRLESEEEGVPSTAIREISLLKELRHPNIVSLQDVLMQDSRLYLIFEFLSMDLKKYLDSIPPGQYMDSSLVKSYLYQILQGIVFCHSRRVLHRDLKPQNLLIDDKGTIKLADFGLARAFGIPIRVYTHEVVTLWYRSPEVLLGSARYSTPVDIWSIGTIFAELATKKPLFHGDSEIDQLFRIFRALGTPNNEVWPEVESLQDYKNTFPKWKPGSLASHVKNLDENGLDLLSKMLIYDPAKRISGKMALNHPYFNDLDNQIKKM
CDK1/Cyclin A (Homo sapiens), sequence (P20248 whole entry, looked up): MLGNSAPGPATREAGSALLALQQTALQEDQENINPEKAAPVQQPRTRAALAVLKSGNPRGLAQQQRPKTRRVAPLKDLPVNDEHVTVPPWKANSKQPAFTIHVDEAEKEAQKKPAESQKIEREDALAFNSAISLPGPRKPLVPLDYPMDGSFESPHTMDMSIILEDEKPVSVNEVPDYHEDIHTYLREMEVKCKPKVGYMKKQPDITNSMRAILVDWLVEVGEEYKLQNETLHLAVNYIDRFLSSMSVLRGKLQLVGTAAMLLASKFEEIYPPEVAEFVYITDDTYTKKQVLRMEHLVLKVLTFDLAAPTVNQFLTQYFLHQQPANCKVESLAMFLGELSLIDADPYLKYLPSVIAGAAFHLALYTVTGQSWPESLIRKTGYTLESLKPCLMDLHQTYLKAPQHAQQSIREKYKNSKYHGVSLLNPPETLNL
Mitogen-activated protein kinase kinase kinase kinase 1 (Homo sapiens), sequence (Q92918 whole entry, looked up): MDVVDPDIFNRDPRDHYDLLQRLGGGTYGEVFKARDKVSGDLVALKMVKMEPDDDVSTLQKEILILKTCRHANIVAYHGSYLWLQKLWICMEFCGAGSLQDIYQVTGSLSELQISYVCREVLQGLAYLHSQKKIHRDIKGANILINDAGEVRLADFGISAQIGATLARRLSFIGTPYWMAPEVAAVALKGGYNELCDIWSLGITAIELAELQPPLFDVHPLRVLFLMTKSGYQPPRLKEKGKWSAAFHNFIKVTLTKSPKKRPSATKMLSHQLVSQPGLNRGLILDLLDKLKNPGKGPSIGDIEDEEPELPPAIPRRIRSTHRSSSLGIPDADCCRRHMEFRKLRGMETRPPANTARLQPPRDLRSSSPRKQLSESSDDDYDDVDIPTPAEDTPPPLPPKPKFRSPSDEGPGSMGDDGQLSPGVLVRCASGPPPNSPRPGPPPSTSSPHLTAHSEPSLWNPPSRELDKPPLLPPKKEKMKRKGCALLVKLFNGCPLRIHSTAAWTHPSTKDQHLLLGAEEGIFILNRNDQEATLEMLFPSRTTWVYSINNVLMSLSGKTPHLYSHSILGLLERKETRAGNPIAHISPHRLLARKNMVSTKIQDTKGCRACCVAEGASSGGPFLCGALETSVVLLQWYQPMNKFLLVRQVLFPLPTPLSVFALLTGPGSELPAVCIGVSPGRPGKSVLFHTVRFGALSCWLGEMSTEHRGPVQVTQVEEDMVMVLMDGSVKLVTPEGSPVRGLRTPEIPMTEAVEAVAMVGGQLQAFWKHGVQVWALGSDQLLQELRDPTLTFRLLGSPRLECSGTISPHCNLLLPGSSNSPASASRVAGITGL
Death-associated protein kinase 2 (Homo sapiens), sequence (Q9UIK4 whole entry, looked up): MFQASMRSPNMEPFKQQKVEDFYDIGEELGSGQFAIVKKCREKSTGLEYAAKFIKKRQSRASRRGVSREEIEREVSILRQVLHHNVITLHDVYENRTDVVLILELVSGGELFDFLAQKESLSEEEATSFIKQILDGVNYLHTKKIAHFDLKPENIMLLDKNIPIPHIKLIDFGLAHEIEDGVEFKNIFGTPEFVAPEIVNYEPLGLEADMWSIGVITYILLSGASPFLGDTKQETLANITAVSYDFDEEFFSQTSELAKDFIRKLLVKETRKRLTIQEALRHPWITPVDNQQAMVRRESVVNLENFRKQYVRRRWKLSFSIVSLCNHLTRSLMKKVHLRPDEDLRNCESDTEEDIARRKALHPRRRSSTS
Casein kinase I isoform epsilon, sequence (P49674 whole entry, looked up, canonical isoform): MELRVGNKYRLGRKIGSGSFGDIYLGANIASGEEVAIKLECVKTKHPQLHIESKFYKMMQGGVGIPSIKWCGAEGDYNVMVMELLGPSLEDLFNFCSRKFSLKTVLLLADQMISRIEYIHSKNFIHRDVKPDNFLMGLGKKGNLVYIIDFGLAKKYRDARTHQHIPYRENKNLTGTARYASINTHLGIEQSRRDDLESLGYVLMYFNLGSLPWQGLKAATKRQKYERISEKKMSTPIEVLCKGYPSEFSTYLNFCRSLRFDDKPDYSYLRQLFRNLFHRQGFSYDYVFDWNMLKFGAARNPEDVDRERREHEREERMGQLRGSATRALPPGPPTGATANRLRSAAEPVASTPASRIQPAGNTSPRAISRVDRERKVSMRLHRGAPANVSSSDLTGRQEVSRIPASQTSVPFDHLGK
Interleukin-1 receptor-associated kinase 1 (Homo sapiens), sequence (P51617 whole entry, looked up, canonical isoform): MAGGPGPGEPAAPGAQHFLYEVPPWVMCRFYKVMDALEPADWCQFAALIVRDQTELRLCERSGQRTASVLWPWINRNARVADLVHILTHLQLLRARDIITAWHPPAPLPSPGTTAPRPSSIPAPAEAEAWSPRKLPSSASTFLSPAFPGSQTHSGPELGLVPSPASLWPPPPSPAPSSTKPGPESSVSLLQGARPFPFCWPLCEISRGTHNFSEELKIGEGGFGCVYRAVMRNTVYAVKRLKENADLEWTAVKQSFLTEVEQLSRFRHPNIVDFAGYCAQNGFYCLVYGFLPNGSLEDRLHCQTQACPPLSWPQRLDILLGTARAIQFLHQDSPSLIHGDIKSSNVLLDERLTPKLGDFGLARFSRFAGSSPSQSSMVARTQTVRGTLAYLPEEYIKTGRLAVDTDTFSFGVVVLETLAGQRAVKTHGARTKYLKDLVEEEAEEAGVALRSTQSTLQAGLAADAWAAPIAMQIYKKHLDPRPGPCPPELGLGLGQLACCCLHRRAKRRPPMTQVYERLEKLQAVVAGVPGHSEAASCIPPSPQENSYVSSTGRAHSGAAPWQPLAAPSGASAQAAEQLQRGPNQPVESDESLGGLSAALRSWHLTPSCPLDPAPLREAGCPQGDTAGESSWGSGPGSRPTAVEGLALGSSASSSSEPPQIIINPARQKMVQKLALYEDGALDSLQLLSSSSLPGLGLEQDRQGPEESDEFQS
Calcium/calmodulin-dependent protein kinase type 1D (Homo sapiens), sequence (Q8IU85 whole entry, looked up, canonical isoform): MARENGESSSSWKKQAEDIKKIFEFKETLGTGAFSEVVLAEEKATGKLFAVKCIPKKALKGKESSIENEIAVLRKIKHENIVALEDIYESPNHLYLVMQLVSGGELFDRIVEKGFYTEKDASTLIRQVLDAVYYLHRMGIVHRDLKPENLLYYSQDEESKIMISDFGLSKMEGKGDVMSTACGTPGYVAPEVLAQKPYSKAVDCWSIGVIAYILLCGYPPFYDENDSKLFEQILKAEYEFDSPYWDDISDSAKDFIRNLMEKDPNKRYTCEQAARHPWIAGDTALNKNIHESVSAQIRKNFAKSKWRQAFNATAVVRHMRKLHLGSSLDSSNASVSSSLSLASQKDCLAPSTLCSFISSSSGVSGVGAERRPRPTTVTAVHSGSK

As to `C[C@H](Nc1ncnc2nc[nH]c12)c1cc2cccc(Cl)c2c(=O)n1-c1ccccc1`, the Activity in test [1] was 104%; in test [2] it was 95%; in [3], 99.9%; in [4], 95.4%; in [5] it was 96%; in [6], 90.9%. Moreover, the Activity in test [7] came out at 91.7%; in test [8] it was 98.2%; in test [9] it was 92.3%; in test [10] it was 102%; in test [11], 92.9%; in [12] it was 95.7%. For the same compound, the Activity in [13] came to 103%.

`CC[C@H](Nc1ncnc2[nH]cnc12)c1nc2cccc(F)c2c(=O)n1-c1ccccc1`: the Activity in [1] was 98%; in test [2], 102%; in test [3] it was 105%; in [4] it was 104%; in test [5], 98.8%; in test [6] it was 92.9%. Further, the Activity was 97.2% in test [7]; 96.8% in test [8]; 89% in test [9]; 106% in [10]; 93.1% in test [11]; 95.5% in test [12]. In addition, the Activity in test [13] was 106%.

Take `CC(C)Oc1ccc(-c2nn([C@@H](C)c3oc4ccc(F)cc4c(=O)c3-c3cccc(F)c3)c3ncnc(N)c23)cc1F` [UMBRALISIB]: the Activity turned out to be 105% in test [1]; 97.8% in test [2]; 102% in [3]; 102% in test [4]; 99.1% in [5]; 39.9% in test [6]. Besides, the Activity in [7] is 94.5%; in test [8], 96.4%; in [9] it was 93.7%; in [10], 105%; in test [11], 95.4%; in test [12], 96.9%. Besides, the Activity in [13] worked out at 97.9%.
